Experimental data from patent US11766397B2, “Bioactive compositions comprising ficus serum fracton and methods to reduce the appearance of skin hyperpigmentation” (ISP INVESTMENTS LLC, priority 2010, dated 2023).

System: facial hyperpigmented spots in humans
Test: In vivo testing for hyperpigmented spot reduction and melanin evenness (split face, vehicle controlled)
Parameters: species or system human
Settings: for Melanin Evenness vs Vehicle / NC2SAF (spot area fraction) vs Vehicle: twice daily facial application
Experimental: A 9 week in-vivo study was conducted using a round robin, vehicle controlled, split face design including a 1 week normalization period with 270 subjects. The 270 subjects were screened according to inclusion/exclusion criteria which included the following:
• Has hyperpigmented spots around cheek and/or periorbital area on both sides of the face. • Has at least 1 hyperpigmented spot of 8-10 mm diameter, 4 spots of 4-6 mm or 10 spots of 2-3 mm diameter (sun spots., freckles, or melasma spots) or • equivalent spot area in the cheek area on each side of their face. • Is willing to refrain from sun exposure by using supplied UV lotion and physical UV blocks, such as a hat, to avoid facial sunburn, tanning or wind burn.
• Has been diagnosed as having atopy, eczema, psoriasis, or other chronic skin diseases. • Has obvious signs of facial skin disease (e.g., more than 5 pimples, areas of red scaling skin, superficial thin blood vessels, etc.). • Has significant areas of discoloration or scarring on the face. • Has more than 3 prominent moles (<3 mm) on the face.
Two hundred and seventy subjects were recruited for the study. Approximately 60 subjects dropped during the course of the study. Each subject received two coded test formulations for twice daily application to each half of the face. Images of the facial treatment sites were captured at baseline (week 0), and after 4 and 8 weeks of treatment and analyzed for changes to skin color and spot size and color. The product formulations included a vehicle control, the Vehicle+0.55% FSF, and the vehicle+5% vitamin B3 compound (Niacinamide).
Noncontact spectrophotometric intracutaneous analysis (SiaScopy, Astron Clinica, UK) was used to collect and analyze the subject images. The method used a digital camera (e.g., Fuji S2 digital SLR) as a […] and a flash lighting source (e.g., Sigma Super flash light source) to recover facial chromophore information. A cross polarized filter was placed in front of the camera and the lighting source to eliminate specular reflection.
Chromophore mapping of the concentration and distribution of eumelanin (melanin) and oxyhaemoglobin produces grayscale concentration maps of each of these chromophores. Image analysis software, such as Optimas 6.5, can be used to select a region of interest in each chromophore map from which mean grayscale values and spot area fraction are calculated. Spot area fraction refers to total area occupied by melanin spots as a percentage of the whole region of interest. A description of one type of chromophore mapping can be found in EP 1,810,614 and “The Distribution of Melanin in Skin Determined In Vivo”, British Journal of Dermatology, 2007, pp 620-628.

NC(=O)c1cccnc1 [Niacinamide]
Melanin Evenness vs Vehicle (4 weeks): ns (ns = not significant (p > 0.3)) | NC2SAF (spot area fraction) vs Vehicle (4 weeks): as | Melanin Evenness vs Vehicle (8 weeks): sig (sig = significant (p < 0.1)) | NC2SAF (spot area fraction) vs Vehicle (8 weeks): sig (sig = significant (p < 0.1)) | reducing hyperpigmented spots (After 8 weeks): best performer
